Usually IC50 stands for the midpoint of a concentration-inhibition curve. Read a low IC50 as inhibition by little substance.

Chain of KRAS G12C (P01116 other isoform, or with tags, fused parts or gaps G12C/C118A): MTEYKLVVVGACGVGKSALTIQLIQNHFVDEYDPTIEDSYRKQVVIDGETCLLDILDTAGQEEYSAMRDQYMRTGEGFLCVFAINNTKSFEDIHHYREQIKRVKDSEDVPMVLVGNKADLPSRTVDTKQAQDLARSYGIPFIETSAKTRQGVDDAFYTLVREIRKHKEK

This test deals with KRAS G12C (Homo sapiens (Human), UniProt P01116, C118A/G12C). Description: 2 h coupled exchange assay. It counts as biochemical. The conditions noted are these: Avg 2 h Coupled exchange IC50, 2 h compound pre-incubation, SOS-mediated nucleotide exchange. As for the experimental part:
The term “2 h coupled exchange assay” or “20 h coupled exchange assay” as used herein refers to the assay described in the Section entitled “BIOLOGICAL EVALUATION.”
`C=CC(=O)N1CC2(CCN(c3nc4c(c(-c5c(Cl)ccc6ccn(C)c56)c3C#N)COC(C)(C)C4)C2)C1` [Example 12-14, 4-(6-chloro-1-methyl-1H-indol-7-yl)-7,7-dimethyl-2-(2-(2-propenoyl)-2,6-diazaspiro[3.4]octan-6-yl)-7,8-dihydro-5H-pyrano[4,3-b]pyridine-3-carbonitrile] gave an IC50 of 246 nM.
The result for `C=CC(=O)N1CC2(CCN(c3nc4c(c(-c5c(F)ccc6cc[nH]c56)c3C#N)C[C@H]3C[C@@H]4C3(C)C)C2)C1` [Example 12-15, (1R,9R)-6-(6-fluoro-1H-indol-7-yl)-10,10-dimethyl-4-(2-(2-propenoyl)-2,6-diazaspiro[3.4]octan-6-yl)-3-azatricyclo[7.1.1.0^2,7] undeca-2,4,6-triene-5-carbonitrile] reads 464 nM; that for `C=CC(=O)N1CC2(CCN(c3nc4c(c(-c5c(Cl)ccc6[nH]ccc56)c3C#N)COC(C)(C)C4)C2)C1` [Example 12-16, 4-(5-chloro-1H-indol-4-yl)-7,7-dimethyl-2-(2-(2-propenoyl)-2,6-diazaspiro[3.4]octan-6-yl)-7,8-dihydro-5H-pyrano[4,3-b]pyridine-3-carbonitrile], 242 nM.
As for `C=CC(=O)N1CC2(CCN(c3nc4c(c(-c5cccc6cc(N)ncc56)c3C#N)COC(C)(C)C4)C2)C1` [Example 12-17, 4-(3-amino-8-isoquinolinyl)-7,7-dimethyl-2-(2-(2-propenoyl)-2,6-diazaspiro[3.4]octan-6-yl)-7,8-dihydro-5H-pyrano[4,3-b]pyridine-3-carbonitrile], the figure is 132 nM; as for `C=CC(=O)N1CC2(CCN(c3nc4c(c(-c5c(Cl)c(C)cc6[nH]ncc56)c3C#N)C[C@H]3C[C@@H]4C3(C)C)C2)C1` [Example 12-18, (1R,9R)-6-(5-chloro-6-methyl-1H-indazol-4-yl)-10,10-dimethyl-4-(2-(2-propenoyl)-2,6-diazaspiro[3.4]octan-6-yl)-3-azatricyclo[7.1.1.0^2,7] undeca-2,4,6-triene-5-carbonitrile], 988 nM.
On to `C=CC(=O)N1CC2(CCN(c3nc4c(c(-c5cccc6snnc56)c3C#N)COC(C)(C)C4)C2)C1` [Example 12-21, 4-(1,2,3-benzothiadiazol-4-yl)-7,7-dimethyl-2-(2-(2-propenoyl)-2,6-diazaspiro[3.4]octan-6-yl)-7,8-dihydro-5H-pyrano[4,3-b]pyridine-3-carbonitrile], for which inhibition was half-maximal at 601 nM (IC50).
`C=CC(=O)N1CC2(CCN(c3nc4c(c(-c5c(C)c(C)cc6cnn(C)c56)c3C)CCN(C(C)C)C4)C2)C1` [Example 12-25, 1-(6-(3-methyl-7-(2-propanyl)-4-(1,5,6-trimethyl-1H-indazol-7-yl)-5,6,7,8-tetrahydro-1,7-naphthyridin-2-yl)-2,6-diazaspiro[3.4]octan-2-yl)-2-propen-1-one] displayed a concentration for half-maximal inhibition (IC50) of 141 nM.
`C=CC(=O)N1CC2(CCN(c3nc4c(c(-c5c(C)ccc6nonc56)c3C#N)C[C@H]3C[C@@H]4C3(C)C)C2)C1` [Example 12-26, (1R,9R)-10,10-dimethyl-6-(5-methyl-2,1,3-benzoxadiazol-4-yl)-4-(2-(2-propenoyl)-2,6-diazaspiro[3.4]octan-6-yl)-3-azatricyclo[7.1.1.0^2,7] undeca-2,4,6-triene-5-carbonitrile] gave a concentration for half-maximal inhibition (IC50) of 687 nM.
`C=CC(=O)N1CC2(CCN(c3nc4c(c(-c5cccc6cc(C(F)(F)F)[nH]c56)c3C#N)C[C@H]3C[C@@H]4C3(C)C)C2)C1` [Example 12-27, (1R,9R)-10,10-dimethyl-4-(2-(2-propenoyl)-2,6-diazaspiro[3.4]octan-6-yl)-6-(2-(trifluoromethyl)-1H-indol-7-yl)-3-azatricyclo[7.1.1.0^2,7] undeca-2,4,6-triene-5-carbonitrile]: the IC50 is 476 nM.
Regarding `C=CC(=O)N1CC2(CCN(c3nc4c(c(-c5cc(F)c(O)c6ccccc56)c3C#N)COC(C)(C)C4)C2)C1` [Example 12-28, 4-(3-fluoro-4-hydroxy-1-naphthalenyl)-7,7-dimethyl-2-(2-(2-propenoyl)-2,6-diazaspiro[3.4]octan-6-yl)-7,8-dihydro-5H-pyrano[4,3-b]pyridine-3-carbonitrile], the midpoint of inhibition, the IC50, lay at 263 nM.
The result for `C=CC(=O)N1CC2(CCN(c3nc4c(c(-c5ncc(Cl)c6ccccc56)c3C#N)COC(C)(C)C4)C2)C1` [Example 12-30, 4-(4-chloro-1-isoquinolinyl)-7,7-dimethyl-2-(2-(2-propenoyl)-2,6-diazaspiro[3.4]octan-6-yl)-7,8-dihydro-5H-pyrano[4,3-b]pyridine-3-carbonitrile] reads 438 nM; that for `C=CC(=O)N1CC2(CCN(c3nc4c(c(-c5ccc(O)c6ccccc56)c3C#N)COC(C)(C)C4)C2)C1` [Example 12-31, 4-(4-hydroxy-1-naphthalenyl)-7,7-dimethyl-2-(2-(2-propenoyl)-2,6-diazaspiro[3.4]octan-6-yl)-7,8-dihydro-5H-pyrano[4,3-b]pyridine-3-carbonitrile], 189 nM; that for `C=CC(=O)N1CC2(CCN(c3nc4c(c(-c5cccc6ccc(O)cc56)c3C#N)COC(C)(C)C4)C2)C1` [Example 12-32, 4-(7-hydroxy-1-naphthalenyl)-7,7-dimethyl-2-(2-(2-propenoyl)-2,6-diazaspiro[3.4]octan-6-yl)-7,8-dihydro-5H-pyrano[4,3-b]pyridine-3-carbonitrile], 515 nM.
`C=CC(=O)N1CC2(CCN(c3nc4c(c(-c5cccc6c(O)cccc56)c3C#N)COC(C)(C)C4)C2)C1` [Example 12-33, 4-(5-hydroxy-1-naphthalenyl)-7,7-dimethyl-2-(2-(2-propenoyl)-2,6-diazaspiro[3.4]octan-6-yl)-7,8-dihydro-5H-pyrano[4,3-b]pyridine-3-carbonitrile] yielded a concentration for half-maximal inhibition (IC50) of 527 nM.
`C=CC(=O)N1CC2(CCN(c3nc4c(c(-c5cccc6cnn(C)c56)c3C#N)C[C@H]3C[C@@H]4C3(C)C)C2)C1` [Example 12-40, (1R,9R)-10,10-dimethyl-6-(1-methyl-1H-indazol-7-yl)-4-(2-(2-propenoyl)-2,6-diazaspiro[3.4]octan-6-yl)-3-azatricyclo[7.1.1.0^2,7] undeca-2,4,6-triene-5-carbonitrile]: it took 344 nM to reach half-maximal inhibition (IC50).
`C=CC(=O)N1CC2(CCN(c3nc4c(c(-c5cccc6[nH]ccc56)c3C#N)C[C@H]3C[C@@H]4C3(C)C)C2)C1` [Example 12-42, (1R,9R)-6-(1H-indol-4-yl)-10,10-dimethyl-4-(2-(2-propenoyl)-2,6-diazaspiro[3.4]octan-6-yl)-3-azatricyclo[7.1.1.0^2,7] undeca-2,4,6-triene-5-carbonitrile] showed a half-inhibitory concentration (IC50) of 878 nM.
As for `Cc1ccc2[nH]ncc2c1-c1c(C#N)c(N2CCC3(CN(C(=O)/C=C/CF)C3)C2)nc2c1CCC(C)(C)C2` [Example 13-6, 2-(2-((2E)-4-fluoro-2-butenoyl)-2,6-diazaspiro[3.4]octan-6-yl)-7,7-dimethyl-4-(5-methyl-1H-indazol-4-yl)-5,6,7,8-tetrahydro-3-quinolinecarbonitrile], the figure is 169 nM; as for `Cc1ccc2[nH]ncc2c1-c1c(C#N)c(N2CCC3(CN(C(=O)/C=C/C(F)(F)F)C3)C2)nc2c1CCC(C)(C)C2` [Example 13-7, 7,7-dimethyl-4-(5-methyl-1H-indazol-4-yl)-2-(2-((2E)-4,4,4-trifluoro-2-butenoyl)-2,6-diazaspiro[3.4]octan-6-yl)-5,6,7,8-tetrahydro-3-quinolinecarbonitrile], 229 nM; as for `Cc1ccc2[nH]ncc2c1-c1c(C#N)c(N2CCC3(CN(C(=O)/C=C/CO)C3)C2)nc2c1CCC(C)(C)C2` [Example 13-9, 2-(2-((2E)-4-hydroxy-2-butenoyl)-2,6-diazaspiro[3.4]octan-6-yl)-7,7-dimethyl-4-(5-methyl-1H-indazol-4-yl)-5,6,7,8-tetrahydro-3-quinolinecarbonitrile], 324 nM.
As for `C=CC(=O)N1CC2(CCN(c3nc4c(c(-c5c(C)ccc6[nH]ncc56)c3C#N)CN(C)CC4)C2)C1` [Example 13-22, 6-methyl-4-(5-methyl-1H-indazol-4-yl)-2-(2-(2-propenoyl)-2,6-diazaspiro[3.4]octan-6-yl)-5,6,7,8-tetrahydro-1,6-naphthyridine-3-carbonitrile], the figure is 259 nM; as for `C=CC(=O)N1CC2(CCN(c3nc4c(c(-c5ccccc5Cl)c3C#N)CC(C)(C)C4)C2)C1` [Example 13-23, 4-(2-chlorophenyl)-6,6-dimethyl-2-(2-(2-propenoyl)-2,6-diazaspiro[3.4]octan-6-yl)-6,7-dihydro-5H-cyclopenta[b]pyridine-3-carbonitirle], 769 nM.
In turn, `C=CC(=O)N1CC2(CCN(c3nc4c(c(-c5scnc5C)c3C#N)CCC(c3ccnn3C)C4)C2)C1` [Example 13-27, (7S)-7-(1-methyl-1H-pyrazol-5-yl)-4-(4-methyl-1,3-thiazol-5-yl)-2-(2-(2-propenoyl)-2,6-diazaspiro[3.4]octan-6-yl)-5,6,7,8-tetrahydro-3-quinolinecarbonitrile|(7R)-7-(1-methyl-1H-pyrazol-5-yl)-4-(4-methyl-1,3-thiazol-5-yl)-2-(2-(2-propenoyl)-2,6-diazaspiro[3.4]octan-6-yl)-5,6,7,8-tetrahydro-3-quinolinecarbonitrile] returned an IC50 of 231 nM.
The result for `C=CC(=O)N1CC2(CCN(c3nc4c(c(-c5c(C)ccc6cnn(C)c56)c3C#N)C[C@H]3C[C@@H]4C3)[C@H]2C)C1` [Example 13-30, (1S,9R)-6-(1,6-dimethyl-1H-indazol-7-yl)-4-((5S)-5-methyl-2-(2-propenoyl)-2,6-diazaspiro[3.4]octan-6-yl)-3-azatricyclo[7.1.1.0^2,7]undeca-2,4,6-triene-5-carbonitrile] reads 715 nM; that for `C=CC(=O)N1CC2(CCN(c3nc4c(c(-c5cc(C)cc6ccccc56)c3C#N)COC(C)(C)C4)C2)C1` [Example 13-33, 7,7-dimethyl-4-(3-methyl-1-naphthalenyl)-2-(2-(2-propenoyl)-2,6-diazaspiro[3.4]octan-6-yl)-7,8-dihydro-5H-pyrano[4,3-b]pyridine-3-carbonitrile], 676 nM.

The values above are taken from US20240059703A1 (AMGEN INC., priority 2021, published 2024).
